Measurements from patent publication US12522596B2, “Compounds as GLP-1R agonists” (Terns Pharmaceuticals, Inc., priority 2021, dated 2026).

Experiments:
[1] = biological target: T1, human GLP-1R receptor (Homo sapiens, UniProt P43220); test: GLP-1R low expression cell assay (cAMP TR-FRET, CHO-K1_hGLP-1Rlow_clone10); type: cell-based; conditions: CHO-K1_hGLP-1Rlow_clone10 cells
T1 construct: expressed in transfected cells
Description: Stable cell lines expressing high and low GLP-1R surface expression were generated in CHO-K1 cells transfected (Fugene 6) with a puromycin selectable DNA plasmid encoding human GLP-1R receptor (accession number: NM_002062.5) under control of an EF1A promoter. Transfected cells were seeded into 24-well plates (9,000 cells/well) containing complete medium and incubated in a humidified incubator at 37° C. with 5% carbon dioxide. After overnight incubation, medium was replaced with complete medium supplemented with puromycin (6 μg/mL) and refreshed every 2-3 days to select for stably transfected cells. Individual pools of selected cells were expanded prior to analysis for responsiveness to GLP-1 control peptide using a TR-FRET assay to detect cAMP (LANCE Ultra CAMP Assay, Perkin Elmer). Briefly, cells were collected in Versene solution, plated in 384-well plates (1,000 cells/well) and combined with serially diluted GLP-1R control peptide (10 nL) using an acoustic dispenser (ECHO). Plates were incubated for 30 minutes at 25° C. prior to the addition of EU-CAMP tracer (5 μL) and Ulight-anti-cAMP (5 μL) reagents to each well, followed by 15 minutes incubation at 25° C. TR-FRET signal was detected using an En Vision Multimode Plate Reader (excitation=320 nm; emission=615 and 655 nm). Dose-response curves were used to generate EC50 values as a measure of responsiveness to the GLP-1R control peptide. Selected cell lines were monitored for responsiveness over multiple passages to ensure stability. […] Briefly, GLP-1R expression was analyzed by flow cytometry using a fluorescein-labeled Exendin-4 peptide fluorescent probe (FLEX). Cells were harvested in Versene solution and washed 3-times with PBS+0.5% BSA before incubation with FLEX reagent (10 μM) for 2 hours at room temperature. After incubation, cells were washed 3-times in PBS+0.5% BSA before final resuspension in PBS prior to analysis by flow cytometry to measure FLEX mean fluorescence intensity (MFI) as a measure of GLP-1R expression on the cell surface.
For compound testing in the CHO-K1_hGLP-1Rlow_clone10 cell line, cells were seeded in 384-well plates (1,000 cells/well). Test compounds were serially diluted in DMSO (10-point, 3-fold dilution), added to wells using an ECHO dispenser (10 nL/well) and plates were centrifuged for 1 min and agitated for 2 min at room temperature prior to 30-minute incubation at 25° C. After incubation, Eu-CAMP (5 μL) and Ulight-anti-cAMP (5 μL) reagents were added to each well, followed by centrifugation for 1 minute, agitation for 2 minutes at room temperature, and final incubation of the plates at 25° C. for 15 minutes. Plates were read using an EnVision microplate reader (excitation=320 nm; emission=615 and 655 nm). Dose-response curves were generated from duplicate wells based on percent activation calculated relative to a control GLP-1 peptide agonist that was run in parallel. EC50 values were determined by fitting percent activation as a function of compound concentration using the Hill equation (XLfit).
Stable cell lines expressing high and low GLP-1R surface expression were generated in CHO-K1 cells transfected (Fugene 6) with a puromycin selectable DNA plasmid encoding human GLP-1R receptor (accession number: NM_002062.5) under control of an EF1A promoter. Transfected cells were seeded into 24-well plates (9,000 cells/well) containing complete medium and incubated in a humidified incubator at 37° C. with 5% carbon dioxide. After overnight incubation, medium was replaced with complete medium supplemented with puromycin (6 μg/mL) and refreshed every 2-3 days to select for stably transfected cells. Individual pools of selected cells were expanded prior to analysis for responsiveness to GLP-1 control peptide using a TR-FRET assay to detect cAMP (LANCE Ultra CAMP Assay, Perkin Elmer).

[2] = tested on: rat hepatocytes; test: Metabolic stability in rat hepatocytes; type: in vitro ADME
In short: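 Compounds at 1 μM (0.1% DMSO) were incubated with 1×10^6 cells/mL cryopreserved rat or human hepatocytes in DMEM at 37°C for 0–240 min. Parent remaining was measured by LC-MS/MS; k from semi-log decline gave t1/2 and CLint, with CLhep predicted by the well-stirred model.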

T1 sequence (P43220 24-463): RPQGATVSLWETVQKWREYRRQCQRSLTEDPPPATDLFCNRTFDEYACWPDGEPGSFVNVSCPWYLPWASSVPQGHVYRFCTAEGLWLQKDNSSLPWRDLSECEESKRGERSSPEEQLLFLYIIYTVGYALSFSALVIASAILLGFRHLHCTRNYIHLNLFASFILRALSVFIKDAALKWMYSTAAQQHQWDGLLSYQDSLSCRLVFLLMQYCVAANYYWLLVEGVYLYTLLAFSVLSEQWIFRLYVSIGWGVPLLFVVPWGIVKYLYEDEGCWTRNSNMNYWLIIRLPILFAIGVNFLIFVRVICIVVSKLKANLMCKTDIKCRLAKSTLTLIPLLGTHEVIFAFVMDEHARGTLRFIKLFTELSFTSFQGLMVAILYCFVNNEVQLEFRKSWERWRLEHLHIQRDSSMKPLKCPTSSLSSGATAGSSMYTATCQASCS

EC50 [1] [nM] | CLint relative to reference standard [2] | Half-life relative to reference [2] | Structure (SMILES)
2.5 | significantly lower | significantly higher | Cc1ncsc1Cn1c(CN2CCC(c3cccc(OCc4ccc(C#N)cc4F)n3)CC2)nc2ccc(C(=O)O)cc21 [Compound 4]
9.4 | significantly lower | significantly higher | N#Cc1ccc(COc2ccnc(C3CCN(Cc4nc5ccc(C(=O)O)cc5n4Cc4cncs4)CC3)n2)c(F)c1 [Compound 20]
1.7 | significantly lower | significantly higher | N#Cc1ccc(COc2cccc(N3CCN(Cc4nc5ccc(C(=O)O)cc5n4Cc4cncs4)CC3)n2)c(F)c1 [Compound 30]
0.6 | significantly lower | significantly higher | CC1(c2ccc(C#N)cc2F)Oc2cccc(C3CCN(Cc4nc5ccc(C(=O)O)cc5n4Cc4cncs4)CC3)c2O1 (centres unmarked) [Compound 31]

Structure (SMILES) | EC50 [1] [nM] | CLint relative to reference standard [2] | Half-life relative to reference [2]
N#Cc1ccc(COc2cccc(C3CCN(Cc4nc5ccc(C(=O)O)cc5n4Cc4cncs4)CC3)n2)c(F)c1 [Compound 2] | 3.1 | not significantly different | 
